Among the data in patent US8088791B2, “Antibacterial agents” (Biots Scientific Management Pty Ltd, priority 2006, dated 2012) are MIC values, retold here.

≈ marks a conversion by molar mass, not a printed value. Read-outs that look alike come from different tables or passages of the source. Some results are limits rather than exact numbers.

The test system of one assay is Bacillus subtilis 168CA. The assay can be described thus: Minimum Inhibitory Concentration (MIC) testing, broth microdilution, Bacillus subtilis. The class given is cell-based. Particulars: read-out: Bacillus subtilis MICs Activity. Here is the method: (§1) Compounds of this invention were tested for antimicrobial activity by susceptibility testing in liquid media. MICs for compounds against each strain were determined by a broth microdilution method according to the National Committee for Clinical Laboratory Standards (NCCLS) guidelines. (NCCLS. 2000. Methods for dilution antimicrobial susceptibility tests for bacteria that grow aerobically—fifth edition. Approved standard M7-A5. NCCLS, Wayne, Pa.)
(§2) Briefly, test compounds are prepared in 100 μl of 1.6% DMSO solution in multiwell plates. Several bacterial colonies from a freshly streaked plate are transferred to an appropriate rich broth, such as Mueller Hinton. The cell suspension is adjusted to an optical density of 0.09 and further diluted 1:100 with warm 2× broth. This cell suspension is dispensed into the wells containing compound solution so that the final volume is 200 μl. The plates are incubated overnight (16-20 hours) at 37° C. and turbidity is scored by eye and quantified spectrophotometrically. The MIC is defined as the lowest concentration inhibiting visible growth.
Activities were scored as ‘A’ if the MIC was ≦8 micrograms/ml, ‘B’ if the MIC was 16 to 64 micrograms/ml and ‘C’ if the MIC was greater than 64 micrograms/ml.
A general note: Broth dilution looks for growth in wells or tubes with falling amounts of substance.

Assay [1] concerns Staphylococcus aureus ATCC29213. The assay can be described thus: Minimum Inhibitory Concentration (MIC) testing, broth microdilution, Staphylococcus aureus. Type of assay: cell-based. Here is the method: as §1, §2
Some of the compounds of the Examples were also tested for activity against the pathogenic organism Staphylococcus aureus ATCC29213. […] Activities were again scored as ‘A’ if the MIC was ≦8 micrograms/ml, ‘B’ if the MIC was 16 to 64 micrograms/ml and ‘C’ if the MIC was greater than 64 micrograms/ml.

The mark [2] stands for this setting: Staphylococcus aureus ATCC29213, read-out: Staphylococcus aureus MICs Activity.

As to `COc1ccc(-c2nc(COc3ccc(F)c(C(N)=O)c3F)sc2-c2ccccn2)cc1` [Example 125, 2,6-Difluoro-3-[4-(4-methoxy-phenyl)-5-pyridin-2-yl-thiazol-2-ylmethoxy]-benzamide], the MIC (with Bacillus subtilis 168CA (Bacillus subtilis 168CA); in assay [1] (setting [2])) was < 8 µg/mL each time.

For the compound `NC(=O)c1c(F)ccc(OCc2nc(-c3ccccc3Cl)cs2)c1F` [Example 99, 3-[4-(2-Chloro-phenyl)-thiazol-2-ylmethoxy]-2,6-difluoro-benzamide], the MIC (in the assay with Bacillus subtilis 168CA (Bacillus subtilis 168CA); in assay [1] (setting [2])) was < 8 µg/mL throughout.

For the compound `Cc1ccc2sc(COc3ccc(F)c(C(N)=O)c3F)cc2c1` [Example 205, 2,6-Difluoro-3-[(5-methyl-1-benzothiophen-2-yl)methoxy]benzenecarboxamide], the MIC (in the assay on Bacillus subtilis 168CA (Bacillus subtilis 168CA); in assay [1] (setting [2])) was < 8 µg/mL in each case.

With `NC(=O)c1c(F)ccc(OCc2nc3cc(-c4ccccc4O)ccc3s2)c1F` [Example 157, 2,6-Difluoro-3-[5-(2-hydroxy-phenyl)-benzothiazol-2-ylmethoxy]-benzamide], the MIC (in the assay on Bacillus subtilis 168CA (Bacillus subtilis 168CA); in assay [1] (setting [2])) was < 8 µg/mL in each case.

As for `CCCCCCCCCOc1ccc(F)c(C(N)=O)c1` [Example 70, 2-Fluoro-5-(nonyloxy)benzenecarboxamide], the MIC (in the assay with Bacillus subtilis 168CA (Bacillus subtilis 168CA); in assay [1] (setting [2])) was < 8 µg/mL throughout.

Take `NC(=O)c1c(F)ccc(OCc2cccc(OC(F)(F)F)c2)c1F` [Example 107, 2,6-Difluoro-3-(3-trifluoromethoxybenzyloxy)benzamide]: the MIC (in the assay with Bacillus subtilis 168CA (Bacillus subtilis 168CA); in assay [1] (setting [2])) was < 8 µg/mL throughout.

For `COc1ccc(-c2csc(COc3ccc(F)c(C(N)=O)c3F)n2)cc1` [Example 105, 3-[4-(4-Methoxyphenyl)thiazol-2-ylmethoxy]-2,6-difluoro-benzamide], the MIC (in the assay on Bacillus subtilis 168CA (Bacillus subtilis 168CA); in assay [1] (setting [2])) was < 8 µg/mL each time.

Take `NC(=O)c1c(F)ccc(OCc2nc(CCc3ccccc3)cs2)c1F` [Example 122, 2,6-Difluoro-3-(4-phenethyl-thiazol-2-ylmethoxy)-benzamide]: the MIC (with Bacillus subtilis 168CA (Bacillus subtilis 168CA); in assay [1] (setting [2])) was < 8 µg/mL throughout.

On to `CCCCCCOc1c(F)ccc(C(N)=O)c1F` [Example 80, 2,4-Difluoro-3-(hexyloxy)benzenecarboxamide], for which the MIC (in the assay with Bacillus subtilis 168CA (Bacillus subtilis 168CA); in assay [1] (setting [2])) was 16 to 64 µg/mL (≈ 62.2 to 249 µM) throughout.

For the compound `NC(=O)c1c(F)ccc(OCc2cccc(F)c2)c1F` [Example 101, 2,6-Difluoro-3-(3-fluoro-benzyloxy)-benzamide], the MIC (with Bacillus subtilis 168CA (Bacillus subtilis 168CA); in assay [1] (setting [2])) was 16 to 64 µg/mL (≈ 56.9 to 228 µM) in each case.

For the compound `NC(=O)c1c(F)ccc(OCc2ccc3c(Br)cccc3n2)c1F` [Example 151, 3-(5-Bromo-quinolin-2-ylmethoxy)-2,6-difluoro-benzamide], the values for the MIC (in the assay on Bacillus subtilis 168CA (Bacillus subtilis 168CA); in assay [1] (setting [2])) were < 8 µg/mL and 16 to 64 µg/mL (≈ 40.7 to 163 µM), respectively.

Take `Cc1csc(COc2ccc(F)c(C(N)=O)c2F)n1` [Example 193, 2,6-Difluoro-3-[(4-methyl-1,3-thiazol-2-yl)methoxy]benzenecarboxamide]: the MIC (with Bacillus subtilis 168CA (Bacillus subtilis 168CA); in assay [1] (setting [2])) was 16 to 64 µg/mL (≈ 56.3 to 225 µM) throughout.

For the compound `CCCCCC#CCOc1cccc(C(N)=O)c1` [Example 31, 3-(2-Octynyloxy)benzenecarboxamide], the MIC (in the assay on Bacillus subtilis 168CA (Bacillus subtilis 168CA); in assay [1] (setting [2])) was 16 to 64 µg/mL (≈ 65.2 to 261 µM) throughout.

As to `NC(=O)c1c(F)ccc(OCc2cccc(Oc3ccccc3)c2)c1F` [Example 162, 2,6-Difluoro-3-(3-phenoxy-benzyloxy)-benzamide], the MIC (in the assay on Bacillus subtilis 168CA (Bacillus subtilis 168CA); in assay [1] (setting [2])) was < 8 µg/mL each time.

For the compound `Cc1ccc2sc(COc3ccc(F)c(C(N)=O)c3F)nc2c1` [Example 148, 2,6-Difluoro-3-(5-methyl-benzothiazol-2-ylmethoxy)-benzamide], the MIC (in the assay with Bacillus subtilis 168CA (Bacillus subtilis 168CA); in assay [1] (setting [2])) was < 8 µg/mL in each case.

Take `CC/C=C\CCCCCOc1ccc(F)c(C(N)=O)c1F` [Example 86, 2,6-Difluoro-3-[(Z)-6-nonenyloxy]benzenecarboxamide]: the MIC (with Bacillus subtilis 168CA (Bacillus subtilis 168CA); in assay [1] (setting [2])) was < 8 µg/mL in each case.

For `CCCCCOCCOc1cccc(C(N)=O)c1` [Example 53, 3-[2-(Pentyloxy)ethoxy]benzenecarboxamide], the MIC (in the assay with Bacillus subtilis 168CA (Bacillus subtilis 168CA); in assay [1] (setting [2])) was > 64 µg/mL each time.

Consider `COc1ccc(-c2nc(COc3ccc(F)c(C(N)=O)c3F)sc2-c2cncs2)cc1` [Example 164, 2,6-Difluoro-3-[4-(4-methoxy-phenyl)-[5,5′]bithiazolyl-2-ylmethoxy]-benzamide], for which the MIC in the assay with Bacillus subtilis 168CA (Bacillus subtilis, 168CA) was < 8 µg/mL; in assay [1] (Staphylococcus aureus, ATCC29213, read-out: Staphylococcus aureus MICs Activity), < 8 µg/mL.

With `COc1ccc(-c2nc(COc3ccc(F)c(C(N)=O)c3F)sc2-c2ccc(N)cc2)cc1` [Example 285, 2,6-Difluoro-3-[5-(4-amino-phenyl)-4-(4-methoxy-phenyl)-thiazol-2-ylmethoxy]-benzamide], the MIC (in the assay on Bacillus subtilis 168CA (Bacillus subtilis 168CA); in assay [1] (setting [2])) was < 8 µg/mL in each case.

In the case of `COC(=O)c1ccc2nc(COc3ccc(F)c(C(N)=O)c3F)sc2c1` [Example 321, 2-(3-Carbamoyl-2,4-difluoro-phenoxymethyl)-benzothiazole-6-carboxylic acid methyl ester], the MIC (with Bacillus subtilis 168CA (Bacillus subtilis 168CA); in assay [1] (setting [2])) was < 8 µg/mL throughout.

Take `CCCCC#CCCOc1cccc(C(N)=O)c1` [Example 59, 3-(3-Octynyloxy)benzenecarboxamide]: the MIC is < 8 µg/mL in the assay with Bacillus subtilis 168CA (Bacillus subtilis 168CA) and 16 to 64 µg/mL (≈ 65.2 to 261 µM) in assay [1] (setting [2]).

Turning to `COc1ccc(-c2nc(COc3ccc(F)c(C(N)=O)c3F)sc2C#N)cc1` [Example 289, 3-[5-Cyano-4-(4-methoxy-phenyl)-thiazol-2-ylmethoxy]-2,6-difluoro-benzamide], the MIC (in the assay on Bacillus subtilis 168CA (Bacillus subtilis 168CA); in assay [1] (setting [2])) was < 8 µg/mL in each case.

As to `CCCCCC/C=C/COc1cccc(C(N)=O)c1` [Example 49, 3-[(E)-2-Nonenyloxy]benzenecarboxamide], the MIC (with Bacillus subtilis 168CA (Bacillus subtilis 168CA); in assay [1] (setting [2])) was < 8 µg/mL throughout.

For the compound `C=CCCCCOc1cccc(C(N)=O)c1` [Example 15, 3-(5-Hexenyloxy)benzenecarboxamide], the MIC (in the assay on Bacillus subtilis 168CA (Bacillus subtilis 168CA); in assay [1] (setting [2])) was 16 to 64 µg/mL (≈ 73 to 292 µM) throughout.

As for `NC(=O)c1c(F)ccc(OCc2nc3cc(C4=CCCCC4)ccc3s2)c1F` [Example 314], the results for the MIC (in the assay on Bacillus subtilis 168CA (Bacillus subtilis 168CA); in assay [1] (setting [2])) were < 8 µg/mL and 16 to 64 µg/mL (≈ 40 to 160 µM), respectively.

Regarding `NC(=O)c1cccc(OCc2nc(-c3ccc(Cl)cc3)no2)c1F` [Example 267, 3-[3-(4-Chloro-phenyl)-[1,2,4]oxadiazol-5-ylmethoxy]-2-fluoro-benzamide], the MIC (in the assay with Bacillus subtilis 168CA (Bacillus subtilis 168CA); in assay [1] (setting [2])) was < 8 µg/mL in each case.

On to `NC(=O)c1c(F)ccc(OCc2nc(-c3ccc(O)cc3)co2)c1F` [Example 312, 2,6-Difluoro-3-[4-(4-hydroxy-phenyl)-oxazol-2-ylmethoxy]-benzamide], for which the MIC in the assay with Bacillus subtilis 168CA (Bacillus subtilis 168CA) is 16 to 64 µg/mL (≈ 46.2 to 185 µM); in assay [1] (setting [2]), < 8 µg/mL.

For `COc1ccc(-c2nc(COc3ccc(F)c(C(N)=O)c3F)sc2-c2ccc(O)cc2)cc1` [Example 279, 2,6-Difluoro-3-[5-(4-hydroxy-phenyl)-4-(4-methoxy-phenyl)-thiazol-2-ylmethoxy]-benzamide], the MIC (in the assay on Bacillus subtilis 168CA (Bacillus subtilis 168CA); in assay [1] (setting [2])) was < 8 µg/mL throughout.

`NC(=O)c1c(F)ccc(OCc2noc(-c3cccs3)n2)c1F` [Example 134, 2,6-Difluoro-3-(5-thiophen-2-yl-[1,2,4]oxadiazol-3-ylmethoxy)-benzamide]: the MIC (with Bacillus subtilis 168CA (Bacillus subtilis 168CA); in assay [1] (setting [2])) was 16 to 64 µg/mL (≈ 47.4 to 190 µM) each time.

Take `NC(=O)c1c(F)ccc(OCc2nc3cc(C4=CCCC4)ccc3s2)c1F` [Example 316]: the MIC in the assay with Bacillus subtilis 168CA (Bacillus subtilis, 168CA) is < 8 µg/mL; in assay [1] (setting [2]) it was < 8 µg/mL.

For `NC(=O)c1c(F)ccc(OCc2nc3cc(C4CCCC4)ccc3s2)c1F` [Example 317], the MIC (in the assay on Bacillus subtilis 168CA (Bacillus subtilis 168CA); in assay [1] (setting [2])) was < 8 µg/mL in each case.

In the case of `NC(=O)c1c(F)ccc(OCCCCO)c1F` [Example 178, 2,6-Difluoro-3-(4-hydroxybutoxy)benzenecarboxamide], the MIC (with Bacillus subtilis 168CA (Bacillus subtilis 168CA); in assay [1] (setting [2])) was 16 to 64 µg/mL (≈ 65.2 to 261 µM) throughout.

As to `NC(=O)c1c(F)ccc(OCc2ccsc2)c1F` [Example 188, 2,6-Difluoro-3-(3-thienylmethoxy)benzenecarboxamide], the MIC (in the assay on Bacillus subtilis 168CA (Bacillus subtilis 168CA); in assay [1] (setting [2])) was 16 to 64 µg/mL (≈ 59.4 to 238 µM) throughout.

Consider `NC(=O)c1c(F)ccc(OCc2nc(-c3ccc(C(F)(F)F)cc3)no2)c1F` [Example 243, 2,6-Difluoro-3-(3-[4-(trifluoromethyl)phenyl]-1,2,4-oxadiazol-5-ylmethoxy)benzenecarboxamide], for which the MIC (with Bacillus subtilis 168CA (Bacillus subtilis 168CA); in assay [1] (setting [2])) was < 8 µg/mL throughout.

Turning to `CCCCCOc1cccc(C(N)=O)c1` [Example 5, 3-(Pentyloxy)benzenecarboxamide], the MIC (in the assay with Bacillus subtilis 168CA (Bacillus subtilis 168CA); in assay [1] (setting [2])) was 16 to 64 µg/mL (≈ 77.2 to 309 µM) in each case.

Turning to `Cc1cccc(COc2ccc(F)c(C(N)=O)c2F)c1` [Example 195, 2,6-Difluoro-3-[(3-methylbenzyl)oxy]benzenecarboxamide], the MIC with Bacillus subtilis 168CA (Bacillus subtilis 168CA) is < 8 µg/mL; in assay [1] (setting [2]), 16 to 64 µg/mL (≈ 57.7 to 231 µM).

Take `COc1ccc(-c2nc(COc3ccc(F)c(C(N)=O)c3F)sc2-c2ccncc2)cc1` [Example 127, 2,6-Difluoro-3-[4-(4-methoxy-phenyl)-5-pyridin-4-yl-thiazol-2-ylmethoxy]-benzamide]: the MIC (with Bacillus subtilis 168CA (Bacillus subtilis 168CA); in assay [1] (setting [2])) was < 8 µg/mL each time.
